The values below come from US9387212B2, “Methods for treating Parkinson's disease” (UCB Pharma S.A., priority 2012, dated 2016).

Holding throughout (assay type): in vivo, rat
The test system of experiment [1] is hemi-parkinsonian L-Dopa-primed rats. Description: Behavioural profile analysis in L-Dopa-primed, fully dyskinetic hemi-parkinsonian rats. The conditions noted are these: Radiprodil 3 mg/kg, Tozadenant 30 mg/kg. The procedure: (§1) The specific behavioural profile of unilateral 6-OHDA-lesioned rats was recorded via 8 cameras connected to a video acquisition system. Rats under treatment were placed freely in a small environment (rotometers, 25×22 cm) or in large open-field (50×40 cm) and the behaviour was video-recorded for 55 minutes (total of 3300 sec). The placement in the small (rotometers) or large (open-field) environment may depend on the test. The rats were filmed from below as described in the section which concerns the rotational activity.
(§2) After the in-live data recordings, the videos are subsequently analyzed by the Ethovision program from (Noldus, version 9.0). The animal and its movements and displacements were defined according to three points (nose, center and tail). The movements, position of the body and, the space occupation, were set-up according to the filter analysis defined with specific criteria and thresholds in the program. Various behavioural parameters were analyzed and only the relevant, i.e. the non-correlated ones, were kept for the final behavioural description.
The analysis of the Abnormal Involuntary movement (“AIMs”) was performed with a specific parameter defined in Ethovision 9.0. The parameter “body elongation” was used to discriminate both the intensity and the frequency of dyskinetic (i.e. dystonic) position of the rat.
(§3) The analysis of the other types of behaviours was done with specific parameters selected in the video analysis program (Ethovision 9.0) in order to describe as best as possible the behaviour observed visually and being able to quantify it. The parameters “Distance”, “Counter Clockwise rotations”, “Clockwise rotations”, “Streched” were extracted from the analysis. Additional parameter, the “gyration radius” is calculated from the raw data obtained by the system. • Distance (=“distance”): the total distance moved by the animal (cm) • Counter clockwise (=“ipsilateral turns”): count of the number of 360° turns of ipsilateral rotations in the same sense than that of the lesion. • Clockwise (=“contralateral turns”): count of the number of 360° turns of contralateral rotations in the opposite sense to that of the lesion. • Stretched: (=“adequate body position”): time spent in a position wherein the rat stands on its four paws without any bent position of the trunk. In the program this is the parameter “body elongation” that is used to discriminate the intensity and frequency of the adequate body position. The threshold is fixed at 70%. • Gyration Radius (=“adequate trajectory”): for a specific time interval, average distance between the animal position and its average position within this specific time interval. This parameter reflect the ability of the rats to use the entire space of the arena and is measured in centimeters. Statistical Analysis
Consecutively to that chronic L-Dopa/benzerazide treatment, they show a very high level of contralateral rotations and AIMs at the end of this chronic treatment when tested in the open-field. […] This absence of cross-sensitization on the level of contralateral rotations and AIMs result was entirely unexpected.

The test system of experiment [2] is unilateral 6-OHDA-lesioned rats. Description: Chronic add-on treatment to an active dose of L-Dopa/benserazide (10 acquisition sessions; rotometers and open-field). Particulars: plus L-Dopa 14 mg/kg/benserazide 3.5 mg/kg; in comparison to Tozadenant-treated rats (FIG. 16). Here is the method:
Rotational behaviour was recorded using a home-made computerized system. Rats were fixed in a harness, linked to mechanical sensors that were directly connected to a PC. Each 360° clock-wise or counter clock-wise turn was automatically recorded for up to 240 minutes at the maximum. Throughout the experiments, rats were allocated to individual test cages. Each of 8 clear acrylic chambers (50×40 cm), placed on a level, clear glass bottom, held by a robust frame, could be subdivided into 4 individual square test cages of 25×22 cm. A removable acrylic plate serves as a lid. […] Video sequences were recorded on hard disk for storage and subsequently transferred to PC for analysis and conservation. […]
Data of the acquisition session under treatment with A2A and/or NR2B antagonist plus L-Dopa/benserazide were analyzed by two-way repeated measures ANOVA with chronic session as within-subjects factor (10 session levels). The reliabilities of the between-mean differences were assessed with planned contrasts using an F statistic. […]
Ten acquisition sessions (once/day) of L-Dopa (14 mg/kg)/benserazide (3.5 mg/kg) given in co-administration to veh, Tozadenant, Radiprodil or the combination of both compounds increase progressively the level of L-Dopa-induced contralateral rotations when measured in rotometers (FIG. 15). […]

The test system is the same in experiment [3]. Description: Video-based behavioural profile analysis (Ethovision) in drug-naive hemi-parkinsonian rats. Particulars: % of the veh-treated rats; for Distance (quantity of movement): Radiprodil 3 mg/kg po, Tozadenant 30 mg/kg po, LD25 ip, LD/BZ 16/4 mg/kg ip; for Adequate body position / Adequate trajectory (gyration radius) / Contra turns (ability to shift direction) / Ipis turns (ability to shift direction): same doses. Here is the method:
as §1, §2, §3
Specific behavioural analysis: The five behaviours kept for the thorough behavioural analysis (i.e. distance, contra turns, ipsi turns, adequate body position and adequate trajectory) were analyzed with parametric statistic however if variance homogeneity was not respected for the data (Bartlett's test for equal variances) these latter were analyzed with non-parametric statistics (Kruskal-Wallis). In both case, one-way ANOVA was performed to discriminate the effect of the various treatments on each independent behaviours. Significant differences between means were determined by Tukey post hoc test or Dunn's Multiple Comparison test with p<0.05.
The effects of the oral co-administration of Radiprodil (3 mg/kg, po) with Tozadenant (30 mg/kg, po) on the rat behaviour are compared to the testing of: • 1) these compounds separately • 2) a partially active dose of L-Dopa (25 mg/kg, ip) • 3) a fully active dose of L-Dopa/benserazide (16/4 mg/kg, ip).
The behavioural profile was analyzed in detail with an automated behavioural analysis system based on video recordings (see methods section for the description). In addition, classical measurements (rotometers and actometers) of the behaviour are also used to assess quantity of movements. […]

As for `O=C(Nc1ccc2[nH]c(=O)oc2c1)C(=O)N1CCC(Cc2ccc(F)cc2)CC1` [Radiprodil], in experiment [1] (arrow gives direction vs LD/BZ), the “Adequate body position, in comparison to the same rats under L-Dopa/benserazide” value was determined as 5236% ↑; the “Adequate trajectory, in comparison to the same rats under L-Dopa/benserazide” value came to 140% ↑; the “Contra turns, in comparison to the same rats under L-Dopa/benserazide” value was 16% ↓; the “No AIMs, in comparison to the same rats under L-Dopa/benserazide” value came to 1035% ↑. The “Severe AIMs, in comparison to the same rats under L-Dopa/benserazide” value in experiment [1] (arrow gives direction vs LD/BZ) is given as 7% ↓. The “Distance, in comparison to the same rats under L-Dopa/benserazide” value in experiment [1] (arrow in cell: increase, decrease or no change vs LD/BZ) is 69% ↓. For the same molecule, in experiment [2], the “level of severe AIMs in larger open-field, chronic add-on” value was “level of severe AIMs is reduced”. Moreover, in experiment [3] (0-20′), the “Distance (quantity of movement)” value was “++ (300-500%)”, the Adequate body position result was “++ (300-500%)”, the “Adequate trajectory (gyration radius)” value is “++ (300-500%)” and the “Contra turns (ability to shift direction)” value is listed as “+ (200-300%)”. In experiment [3] (0-20′), the “Ipis turns (ability to shift direction)” value is “+ (200-300%)”. Also, in experiment [3] (30-50′), the “Distance (quantity of movement)” value is reported as “+ (200-300%)”, the Adequate body position result is on record as “++ (300-500%)”, the “Adequate trajectory (gyration radius)” value was “++ (300-500%)” and the “Contra turns (ability to shift direction)” value was “+ (200-300%)”. Moreover, in experiment [3] (30-50′), the “Ipis turns (ability to shift direction)” value was “+ (200-300%)”.
